Here are results for eleven molecules from patent publication US10111874B2, “Combination therapies for treatment of cancer” (Araxes Pharma LLC, priority 2014, dated 2018).

One test deals with T1, KRAS G12C 1-169, his-tagged protein, GDP-loaded (Homo sapiens, UniProt P01116, G12C).
T1 construct: KRAS G12C 1-169, his-tagged protein, GDP-loaded
T1 sequence (P01116 1-169 isoform P01116-2 G12C): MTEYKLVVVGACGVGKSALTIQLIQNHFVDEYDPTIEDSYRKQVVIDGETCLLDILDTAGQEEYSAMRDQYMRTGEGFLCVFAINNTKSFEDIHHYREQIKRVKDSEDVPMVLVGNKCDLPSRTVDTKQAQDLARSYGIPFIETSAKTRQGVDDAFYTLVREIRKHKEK
The test can be described thus: Biochemical assay: covalent binding to KRAS G12C analyzed by mass spectrometry. Also: test concentration or dose not given here. The conditions noted are these: compounds 48-246, measured at 2 h.
On to `CCOC(=O)/C=C/C(=O)N1CCN(c2ncnc3cc(-c4ccc(F)cc4F)c(Cl)cc23)CC1` [Compound I-239, (E)-ethyl 4-(4-(6-chloro-7-(2,4-difluorophenyl)quinazolin-4-yl)piperazin-1-yl)-4-oxobut-2-enoate], for which the Binding % result was “+++ (+++indicates binding activity greater than 50% and up to 75%)”. The same measure, in the same setting: for `C=CC(=O)N1CCN(c2ncnc3cc(-c4cccc5ccc(=O)[nH]c45)c(Cl)cc23)CC1` [Compound I-240, 8-(4-(4-acryloylpiperazin-1-yl)-6-chloroquinazolin-7-yl)quinolin-2(1H)-one] the value was “+++ (+++indicates binding activity greater than 50% and up to 75%)”; for `CC(C)/C=C(\C#N)C(=O)N1CCN(c2ncnc3cc(-c4ccccc4F)c(Cl)cc23)CC1` [Compound I-241, (E)-2-(4-(6-chloro-7-(2-fluorophenyl)quinazolin-4-yl)piperazine-1-carbonyl)-4-methylpent-2-enenitrile], “+ (+indicates binding activity from 5% to 25%)”; for `C=CC(=O)N1CCN(c2c(C#N)cnc3c(F)c(-c4ccccc4F)c(Cl)cc23)CC1` [Compound I-242, 4-(4-acryloylpiperazin-1-yl)-6-chloro-8-fluoro-7-(2-fluorophenyl)quinoline-3-carbonitrile], “++++ (++++indicates binding activity greater than 75%)”.

As for `C=CC(=O)N1CCN(c2ncnc3c(F)c(-c4ccccc4C(F)(F)F)c(Cl)cc23)CC1CC#N` (centres unmarked) [Compound I-243, 2-(1-acryloyl-4-(6-chloro-8-fluoro-7-(2-(trifluoromethyl)phenyl)quinazolin-4-yl)piperazin-2-yl)acetonitrile], the Binding % result is listed as “++++ (++++indicates binding activity greater than 75%)”.

`C=CC(=O)N1CCN(c2ncnc3cc(-c4c(OC)ccc5[nH]ncc45)c(Cl)cc23)CC1` [Compound I-244, 1-(4-(6-chloro-7-(5-methoxy-1H-indazol-4-yl)quinazolin-4-yl)piperazin-1-yl)prop-2-en-1-one]: the Binding % result was “+ (+indicates binding activity from 5% to 25%)”. With `N#C/C(=C\c1cncs1)C(=O)N1CCN(c2ncnc3cc(-c4ccccc4F)c(Cl)cc23)CC1` [Compound I-245, (E)-2-(4-(6-chloro-7-(2-fluorophenyl)quinazolin-4-yl)piperazine-1-carbonyl)-3-(thiazol-5-yl)acrylonitrile], the Binding % result was “+ (+indicates binding activity from 5% to 25%)”. For the molecule `C=CC(=O)N1CCN(c2c(C#N)cnc3c(F)c(-c4c(O)cccc4F)c(Cl)cc23)CC1` [Compound I-246, 4-(4-acryloylpiperazin-1-yl)-6-chloro-8-fluoro-7-(2-fluoro-6-hydroxyphenyl)quinoline-3-carbonitrile], the Binding % entry is given as “++++ (++++indicates binding activity greater than 75%)”.

The test is the same for the next values; noted with them: compounds 247-342, measured at 30 min.
As to `O=C(C#CCO)N1CCN(c2ncnc3cc(-c4ccc(F)cc4F)c(Cl)cc23)CC1` [Compound I-247, 1-(4-(6-chloro-7-(2,4-difluorophenyl)quinazolin-4-yl)piperazain-1-yl)-4-hydoxybut-2-yn-1-one], the Binding % entry was “+++ (+++indicates binding activity greater than 50% and up to 75%)”. In the case of `C=CC(=O)N1CCN(c2ncnc3cc(-c4cc(OC)cc5ccccc45)c(Cl)cc23)CC1` [Compound I-249, 1-(4-(6-chloro-7-(3-methoxynaphthalen-1-yl)quinazolin-4-yl)piperazin-1-yl)prop-2-en-1-one], the Binding % entry was “+ (+indicates binding activity from 5% to 25%)”. For `C=CC(=O)N1CCN(c2ncnc3cc(-c4c(O)ccc5c4CCCC5)c(Cl)cc23)CC1` [Compound I-250, 1-(4-(6-chloro-7-(2-hydroxy-5,6,7,8-tetrahydronaphthalen-1-yl)quinazolin-4-yl)piperazin-1-yl)prop-2-en-1-one], the Binding % entry was “++ (++indicates binding activity greater than 25% and up to 50%)”.
